# pEC50: −log10 of the molar value. Activity calls are given as the source filed them. The calls are words filed in the database; no cut-off is given here.
# Columns and labels:
# [1] = Drug concentration in Sprague-Dawley rat plasma at 1 mg/kg, po measured after 0.25 hrs by LC-MS/MS analysis; type: ADME, organism-based
# [2] = MRT (0 to infinity) in Sprague-Dawley rat at 0.1 mg/kg, iv by LC-MS/MS analysis; type: ADME, organism-based; conditions: in vivo
# [3] = Ratio of drug concentration in brain to plasma in Sprague-Dawley rat at 1 mg/kg, po measured after 0.50 hrs by LC-MS/MS analysis; type: ADME, organism-based; conditions: read-out: BPR
# [4] = molecular target: T1, Glutamate receptor ionotropic, AMPA (Rattus norvegicus) (UniProt P19491+P19492+P19493+P19490); test: Agonist activity at AMPA receptor in rat Primary neuron cells relative to control; type: cell-based; conditions: filed as agonist
# [5] = Ratio of drug concentration in brain to plasma in Sprague-Dawley rat at 1 mg/kg, po measured after 6 hrs by LC-MS/MS analysis; type: ADME, organism-based; conditions: read-out: BPR
# [6] = Drug concentration in Sprague-Dawley rat plasma at 1 mg/kg, po measured after 24 hr by LC-MS/MS analysis; type: ADME, organism-based
# [7] = MRT (0 to infinity) in Sprague-Dawley rat at 1 mg/kg, po by LC-MS/MS analysis; type: ADME, organism-based; conditions: in vivo
# [8] = Oral bioavailability in Sprague-Dawley rat at 1 mg/kg by LC-MS/MS analysis; type: ADME, organism-based; conditions: in vivo
# [9] = Drug concentration in Sprague-Dawley rat brain at 1 mg/kg, po measured after 6 hrs by LC-MS/MS analysis; type: ADME, organism-based; conditions: read-out: Ct
# [10] = MRT (0 to t) in Sprague-Dawley rat at 0.1 mg/kg, iv by LC-MS/MS analysis; type: ADME, organism-based; conditions: in vivo
# [11] = Volume of distribution at steady state in Sprague-Dawley rat at 0.1 mg/kg, iv by LC-MS/MS analysis; type: ADME, organism-based; conditions: in vivo, read-out: Vdss
# [12] = Ratio of drug concentration in brain to plasma in Sprague-Dawley rat at 1 mg/kg, po measured after 4 hrs by LC-MS/MS analysis; type: ADME, organism-based; conditions: read-out: BPR
# [13] = Ratio of drug concentration in brain to plasma in Sprague-Dawley rat at 1 mg/kg, po measured after 8 hrs by LC-MS/MS analysis; type: ADME, organism-based; conditions: read-out: BPR
# [14] = Toxicity in mouse assessed as histopathological changes in heart at 0.2 to 0.4 mg/kg, ip administered once daily for 2 weeks and measured after 15 days by H and E staining based analysis; type: organism-based; conditions: in vivo, 360 h, dose 0.2-0.4 mg/kg, time 15 day
# [15] = Ratio of drug concentration in brain to plasma in Sprague-Dawley rat at 1 mg/kg, po measured after 24 hrs by LC-MS/MS analysis; type: ADME, organism-based; conditions: read-out: BPR
# [16] = Toxicity in mouse assessed as histopathological changes in kidney at 0.2 to 0.4 mg/kg, ip administered once daily for 2 weeks and measured after 15 days by H and E staining based analysis; type: organism-based; conditions: in vivo, 360 h, dose 0.2-0.4 mg/kg, time 15 day
# [17] = Drug concentration in Sprague-Dawley rat brain at 1 mg/kg, po measured after 0.25 hr by LC-MS/MS analysis; type: ADME, organism-based; conditions: read-out: Ct
# [18] = test system: Mus musculus; test: Antidepressant activity in chronic restraint induced depressive mouse assessed as rescue in sucrose preference at 0.03 to 0.05 mg/kg administered for 2 days after 16th day by sucrose preference test; type: functional, organism-based; conditions: dose 0.03-0.05 mg/kg, time 2.0 day
# [19] = MRT (0 to t) in Sprague-Dawley rat at 1 mg/kg, po by LC-MS/MS analysis; type: ADME, organism-based; conditions: in vivo
# [20] = Toxicity in mouse assessed as histopathological changes in lung at 0.2 to 0.4 mg/kg, ip administered once daily for 2 weeks and measured after 15 days by H and E staining based analysis; type: organism-based; conditions: in vivo, 360 h, dose 0.2-0.4 mg/kg, time 15 day
# [21] = Drug concentration in Sprague-Dawley rat brain at 1 mg/kg, po measured after 24 hrs by LC-MS/MS analysis; type: ADME, organism-based; conditions: read-out: Ct
# [22] = AUC (0 to t) in Sprague-Dawley rat at 0.1 mg/kg, iv by LC-MS/MS analysis; type: ADME, organism-based; set-up: dose 0.1 mg/kg, route iv; conditions: in vivo
# [23] = Toxicity in mouse assessed as histopathological changes in liver at 0.2 to 0.4 mg/kg, ip administered once daily for 2 weeks and measured after 15 days by H and E staining based analysis; type: organism-based; conditions: in vivo, 360 h, dose 0.2-0.4 mg/kg, time 15 day
# [24] = AUC (0 to infinity) in Sprague-Dawley rat at 1 mg/kg, po by LC-MS/MS analysis; type: ADME, organism-based; set-up: dose 1 mg/kg, route po; conditions: in vivo
# [25] = Drug concentration in Sprague-Dawley rat plasma at 1 mg/kg, po measured after 1 hr by LC-MS/MS analysis; type: ADME, organism-based
# [26] = molecular target: T1, Glutamate receptor ionotropic, AMPA (Rattus norvegicus); test: Agonist activity at AMPA receptor in rat Primary neuron cells assessed as potentiation of s-AMPA induced calcium flux at 1 uM incubated for 1 hr by calcium 2+ influx assay relative to s-AMPA coupled TAK-137; type: cell-based; conditions: filed as agonist
# [27] = Cmax in Sprague-Dawley rat at 1 mg/kg, po by LC-MS/MS analysis; type: ADME, organism-based; set-up: dose 1 mg/kg, route po; conditions: in vivo
# [28] = Tmax in Sprague-Dawley rat at 1 mg/kg, po by LC-MS/MS analysis; type: ADME, organism-based; conditions: in vivo
# [29] = Toxicity in mouse assessed as histopathological changes in spleen at 0.2 to 0.4 mg/kg, ip administered once daily for 2 weeks and measured after 15 days by H and E staining based analysis; type: organism-based; conditions: in vivo, 360 h, dose 0.2-0.4 mg/kg, time 15 day
# [30] = Half life in Sprague-Dawley rat at 1 mg/kg, po by LC-MS/MS analysis; type: ADME, organism-based; conditions: in vivo
# [31] = Ratio of drug concentration in brain to plasma in Sprague-Dawley rat at 1 mg/kg, po measured after 2 hrs by LC-MS/MS analysis; type: ADME, organism-based; conditions: read-out: BPR
# [32] = molecular target: Glutamate receptor ionotropic, AMPA (Rattus norvegicus, UniProt P19490+P19491+P19492+P19493); test: Agonist activity at AMPA receptor in rat Primary neuron cells; type: cell-based
# [33] = Drug concentration in Sprague-Dawley rat plasma at 1 mg/kg, po measured after 0.50 hrs by LC-MS/MS analysis; type: ADME, organism-based
# [34] = Drug concentration in Sprague-Dawley rat plasma at 1 mg/kg, po measured after 2 hr by LC-MS/MS analysis; type: ADME, organism-based
# [35] = Drug concentration in Sprague-Dawley rat brain at 1 mg/kg, po measured after 0.50 hr by LC-MS/MS analysis; type: ADME, organism-based; conditions: read-out: Ct
# [36] = Ratio of drug concentration in brain to plasma in Sprague-Dawley rat at 1 mg/kg, po measured after 0.25 hrs by LC-MS/MS analysis; type: ADME, organism-based; conditions: read-out: BPR
# [37] = Drug concentration in Sprague-Dawley rat plasma at 1 mg/kg, po measured after 8 hr by LC-MS/MS analysis; type: ADME, organism-based
# [38] = Drug concentration in Sprague-Dawley rat brain at 1 mg/kg, po measured after 1 hr by LC-MS/MS analysis; type: ADME, organism-based; conditions: read-out: Ct
# [39] = Ratio of drug concentration in brain to plasma in Sprague-Dawley rat at 1 mg/kg, po measured after 1 hrs by LC-MS/MS analysis; type: ADME, organism-based; conditions: read-out: BPR
# [40] = Drug concentration in Sprague-Dawley rat brain at 1 mg/kg, po measured after 8 hrs by LC-MS/MS analysis; type: ADME, organism-based; conditions: read-out: Ct
# [41] = Half life in Sprague-Dawley rat at 0.1 mg/kg, iv by LC-MS/MS analysis; type: ADME, organism-based; conditions: in vivo
# [42] = Clearance in Sprague-Dawley rat at 0.1 mg/kg, iv by LC-MS/MS analysis; type: ADME, organism-based; conditions: in vivo
compound,measurement,setting,value
O=S1(=O)NCc2cccc(-c3ccc(-c4ccccc4F)cc3)c2O1,concentration at 0.25 h,[1],125 ng/mL
same,MRT inf,[2],2.22 h
same,Kp at 0.5 h,[3],1.08
same,Emax,[4],137%
same,Kp at 6 h,[5],1.73
same,concentration at 24 h,[6],3.96 ng/mL
same,MRT inf,[7],6.08 h
same,bioavailability,[8],67.2%
same,concentration at 6 h,[9],93 ng/g
same,MRT last,[10],1.46 h
same,Vd,[11],1.72 L/kg
same,Kp at 4 h,[12],1.55
same,Kp at 8 h,[13],1.5
same,Activity,[14],Non-Toxic
same,Kp at 24 h,[15],1.48
same,Activity,[16],Non-Toxic
same,concentration at 0.25 h,[17],74.7 ng/g
same,Activity,[18],Active
same,MRT last,[19],5.22 h
same,Activity,[20],Non-Toxic
same,concentration at 24 h,[21],6.05 ng/g
same,AUC(0-t),[22],120 ng·h/mL
same,Activity,[23],Non-Toxic
same,AUC(0-inf),[24],833 ng·h/mL
same,concentration at 1 h,[25],132 ng/mL
same,Activity,[26],80.2%
same,Cmax,[27],142 ng/mL
same,Tmax,[28],30 min
same,Activity,[29],Non-Toxic
same,half-life,[30],290 min
same,Kp at 2 h,[31],2.15
same,pEC50,[32],6.75
same,concentration at 0.5 h,[33],142 ng/mL
same,concentration at 2 h,[34],62.3 ng/mL
same,concentration at 0.5 h,[35],150 ng/g
same,Kp at 0.25 h,[36],0.59
same,concentration at 8 h,[37],25.5 ng/mL
same,concentration at 1 h,[38],217 ng/g
same,Kp at 1 h,[39],1.63
same,concentration at 8 h,[40],37.2 ng/g
same,half-life,[41],163 min
same,clearance,[42],12.9 mL/min/kg

# Reference: ChEMBL document CHEMBL5346925, “3,4-Dihydrobenzo[e][1,2,3]oxathiazine 2,2-dioxide analogs act as potential AMPA receptor potentiators with antidepressant activity” (Eur J Med Chem, 2023)
